According to US7893055B2, “HIV integrase inhibitors” (priority 2006, dated 2011):
pEC50, pIC50: −log10 of the molar value.

Columns and labels:
HIV-integrase = target: T1, HIV-integrase (Human immunodeficiency virus type 1 group M subtype B, UniProt P12497); test: HIV-Integrase Inhibition Activity (SPA strand transfer assay); assay type: biochemical; settings: recombinant integrase, SPA beads, P33 labeled target DNA; read-out: Activity (IC50 class, HIV-integrase inhibition)
T1 construct: Recombinant integrase (0.26 ng) was incubated with the beads
Procedure, shortened: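 Biotinylated substrate DNA (5 pmol) on streptavidin SPA beads was preloaded with 0.26 ng recombinant integrase for 90 min at 37 °C, then washed. Inhibitors and 0.1 fmol 33P-labelled target DNA were added; EDTA (10 mM final) stopped the reaction. Strand-transfer integration was read as bead-associated CPM; IC50 values are grouped into activity bands.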

[1] = system: recombinant NL-Rluc virus; test: Inhibition of HIV replication (NL-Rluc virus, luciferase); assay type: cell-based; settings: NL-Rluc pseudotype virus; serum condition of tabulated values not stated (10% FBS, 15 mg/ml HSA/10% FBS or 40% human serum/5% FBS); read-out: Activity (EC50 class, inhibition of HIV replication)

Compound	melting point	pIC50 (HIV-integrase)	pEC50 [1]
Cc1ncc(CNC(=O)c2nc3n(c(=O)c2O)CCOC3(C)C)s1 [Example 85, 3-Hydroxy-9,9-dimethyl-N-((2-methylthiazol-5-yl)methyl)-4-oxo-4,6,7,9-tetrahydropyrimido[2,1-c][1,4]oxazine-2-carboxamide]	245 °C	7.00 to 8.70	
Pyrimido[2,1-c][1,4]oxazine-2- carboxamide, 4,6,7,9-tetrahydro-3- hydroxy-9,9-dimethyl-N-[(1- methyl-1H-pyrazol-3-yl)methyl]-4- oxo- [Example 72]		7.00 to 8.70	6.00 to 7.00
Pyrimido[2,1-c][1,4]oxazine-2- carboxamide, 4,6,7,9-tetrahydro-3- hydroxy-9,9-dimethyl-N-[[5- methyl-2-(trifluoromethyl)-3- furanyl]methy]-4-oxo- [Example 42]		7.00 to 8.70	6.00 to 7.00
Pyrimido[2,1-c][1,4]oxazine-2- carboxamide, 4,6,7,9-tetrahydro-3- hydroxy-N-[2-(5-hydroxy-1H- indol-3-yl)ethyl]-9,9-dimethyl-4- oxo- [Example 51]		≤ 6.00	
Pyrimido[2,1-c][1,4]oxazine-2- carboxamide, 4,6,7,9-tetrahydro-3- hydroxy-N-[3-(5-methoxy-1H- indol-3-yl)propyl]-9,9-dimethyl-4- oxo- [Example 52]		≤ 6.00	
Pyrimido[2,1-c][1,4]oxazine-2- carboxamide, 4,6,7,9-tetrahydro-3- hydroxy-N-[[3-(4-methoxyphenyl)- 5-isoxazolyl]methyl]-9,9-dimethyl- 4-oxo- [Example 48]		≤ 6.00	
Pyrimido[2,1-c][1,4]oxazine-2- carboxamide, N-(1,2-benzisoxazol- 3-ylmethyl)-4,6,7,9-tetrahydro-3- hydroxy-9,9-dimethyl-4-oxo- [Example 59]		7.00 to 8.70	6.00 to 7.00
Pyrimido[2,1-c][1,4]oxazine-2- carboxamide, N-(2- benzofuranylmethyl)-4,6,7,9- tetrahydro-3-hydroxy-9,9- dimethyl-4-oxo- [Example 56]		7.00 to 8.70	7.00 to 8.52
Pyrimido[2,1-c][1,4]oxazine-2- carboxamide, N-(benzo[b]thien-3- ylmethyl)-4,6,7,9-tetrahydro-3- hydroxy-9,9-dimethyl-4-oxo- [Example 40]		7.00 to 8.70	6.00 to 7.00
Pyrimido[2,1-c][1,4]oxazine-2- carboxamide, N-[(1,3-dimethyl- 1H-pyrazol-4-yl)methyl]-4,6,7,9- tetrahydro-3-hydroxy-9,9- dimethyl-4-oxo- [Example 61]		6.00 to 7.00	
Pyrimido[2,1-c][1,4]oxazine-2- carboxamide, N-[(1,3-diphenyl- 1H-pyrazol-4-yl)methyl]-4,6,7,9- tetrahydro-3-hydroxy-9,9- dimethyl-4-oxo- [Example 66]		6.00 to 7.00	
Pyrimido[2,1-c][1,4]oxazine-2- carboxamide, N-[(1-ethyl-1H- pyrazol-3-yl)methyl]-4,6,7,9- tetrahydro-3-hydroxy-9,9- dimethyl-4-oxo- [Example 67]		7.00 to 8.70	6.00 to 7.00
Pyrimido[2,1-c][1,4]oxazine-2- carboxamide, N-[(1-ethyl-1H- pyrazol-5-yl)methyl]-4,6,7,9- tetrahydro-3-hydroxy-9,9- dimethyl-4-oxo- [Example 68]		≤ 6.00	
Pyrimido[2,1-c][1,4]oxazine-2- carboxamide, N-[(1-ethyl-3- methyl-1H-pyrazol-4-yl)methyl]- 4,6,7,9-tetrahydro-3-hydroxy-9,9- dimethyl-4-oxo- [Example 63]		6.00 to 7.00	
Pyrimido[2,1-c][1,4]oxazine-2- carboxamide, N-[(1-ethyl-3- methyl-1H-pyrazol-5-yl)methyl]- 4,6,7,9-tetrahydro-3-hydroxy-9,9- dimethyl-4-oxo- [Example 46]		6.00 to 7.00	
Pyrimido[2,1-c][1,4]oxazine-2- carboxamide, N-[(1-ethyl-5- methyl-1H-pyrazol-4-yl)methyl]- 4,6,7,9-tetrahydro-3-hydroxy-9,9- dimethyl-4-oxo- [Example 64]		6.00 to 7.00	
Pyrimido[2,1-c][1,4]oxazine-2- carboxamide, N-[(2,5-dimethyl-3- furanyl)methyl]-4,6,7,9- tetrahydro-3-hydroxy-9,9- dimethyl-4-oxo- [Example 44]		7.00 to 8.70	7.00 to 8.52
Pyrimido[2,1-c][1,4]oxazine-2- carboxamide, N-[(2-bromo-3- thienyl)methy]-4,6,7,9-tetrahydro- 3-hydroxy-9,9-dimethyl-4-oxo- [Example 41]		7.00 to 8.70	6.00 to 7.00
Pyrimido[2,1-c][1,4]oxazine-2- carboxamide, N-[(4-bromo-1- ethyl-1H-pyrazol-5-yl)methyl]- 4,6,7,9-tetrahydro-3-hydroxy-9,9- dimethyl-4-oxo- [Example 73]		≤ 6.00	
Pyrimido[2,1-c][1,4]oxazine-2- carboxamide, N-[(4-chloro-1- ethyl-1H-pyrazol-3-yl)methyl]- 4,6,7,9-tetrahydro-3-hydroxy-9,9- dimethyl-4-oxo- [Example 70]		7.00 to 8.70	< 6.00
Pyrimido[2,1-c][1,4]oxazine-2- carboxamide, N-[(4-chloro-1- ethyl-1H-pyrazol-5-yl)methyl]- 4,6,7,9-tetrahydro-3-hydroxy-9,9- dimethyl-4-oxo- [Example 71]		6.00 to 7.00	
Pyrimido[2,1-c][1,4]oxazine-2- carboxamide, N-[(4-chloro-3- methyl-5-isoxazolyl)methyl]- 4,6,7,9-tetrahydro-3-hydroxy-9,9- dimethyl-4-oxo- [Example 54]		6.00 to 7.00	
Pyrimido[2,1-c][1,4]oxazine-2- carboxamide, N-[(5,6-dichloro- 1H-benzimidazol-2-yl)methyl]- 4,6,7,9-tetrahydro-3-hydroxy-9,9- dimethyl-4-oxo- [Example 50]		≤ 6.00	
Pyrimido[2,1-c][1,4]oxazine-2- carboxamide, N-[(5-chloro-1H- indol-2-yl)methyl]-4,6,7,9- tetrahydro-3-hydroxy-9,9- dimethyl-4-oxo- [Example 62]		6.00 to 7.00	
Pyrimido[2,1-c][1,4]oxazine-2- carboxamide, N-[[3-(4- chlorophenyl)-5- isoxazolyl]methyl]-4,6,7,9- tetrahydro-3-hydroxy-9,9- dimethyl-4-oxo- [Example 45]		≤ 6.00	
